± gives the standard deviation of the averaged measurements.
Key:
Assay in all cases: level (log10 ratio to DMSO vehicle control); higher = higher biomarker level / cell amount than vehicle control
[1] = compound: C=C(C)C(=O)OCCC(F)(F)C(F)(F)C(F)(F)C(F)(F)C(F)(F)C(F)(F)F [6:2 Fluorotelomer methacrylate]; details: in DMSO
Method: (§1)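 BioMAP Diversity Plus panel of 12 human primary cell co-culture systems (3C, 4H, LPS, SAg, BT, BF4T, BE3C, CASM3C, HDF3CGF, KF3CT, MyoF, Mphg). Compounds were added 1 h before stimulation and left for 24 h (MyoF 48 h; BT 72 h for soluble read-outs or 6 d for IgG). Biomarkers were read by ELISA, cytotoxicity by SRB, PBMC viability and proliferation by Alamar Blue. Each well value was divided by the mean of 8 DMSO control wells on the same plate and log10 transformed; duplicate blinded samples were tested at 4 concentrations.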

[2] = compound: C=CC(=O)OCC(F)(F)C(F)(F)C(F)(F)COC(=O)C=C [1H,1H,5H,5H-Perfluoro-1,5-pentanediol diacrylate]; details: 6700 nM; in DMSO
Method: as §1

[3] = compound: FC(F)(F)C(F)(F)C(F)(F)C(F)(F)C(F)(F)C(F)(F)C(F)(F)I [1-Iodopentadecafluoroheptane]; details: in DMSO
Method: as §1

[4] = compound: FC(F)(F)C(F)(F)C(F)(F)CC1CO1 [1H,1H-Heptafluorobutyl epoxide]; details: in DMSO
Method: as §1

[5] = compound: NS(=O)(=O)C(F)(F)C(F)(F)C(F)(F)C(F)(F)C(F)(F)C(F)(F)F [Perfluorohexanesulfonamide]; details: in DMSO
Method: as §1

[6] = compound: O=S(=O)(O)CCC(F)(F)C(F)(F)C(F)(F)C(F)(F)C(F)(F)C(F)(F)F [6:2 Fluorotelomer sulfonic acid]; details: in DMSO
Method: as §1

Test System | level (log10) ([1]; 6700 nM) | level (log10) ([1]; 20000 nM) | level (log10) ([1]; 60000 nM) | level (log10) [2] | level (log10) ([3]; 6700 nM) | level (log10) ([3]; 20000 nM) | level (log10) ([4]; 6700 nM) | level (log10) ([4]; 20000 nM) | level (log10) ([4]; 60000 nM) | level (log10) ([5]; 6700 nM) | level (log10) ([5]; 20000 nM) | level (log10) ([5]; 60000 nM) | level (log10) ([6]; 6700 nM) | level (log10) ([6]; 20000 nM) | level (log10) ([6]; 60000 nM)
3C:CD54/ICAM-1 | -0.003 ± 0.0042 | -0.014 ± 0.011 | 0.0025 ± 0.015 | -0.03 ± 0.014 | -0.0115 ± 0.00071 | 0.014 ± 0.016 | -0.02 ± 0.0071 | -0.0135 ± 0.005 | -0.003 ± 0.0057 | 0.013 ± 0.011 | 0.002 ± 0.0085 | 0.0065 ± 0.0078 | -0.012 ± 0.021 | -0.006 ± 0.021 | -0.004 ± 0.011
3C:CD87/uPAR | 0.003 ± 0.035 | 0.004 ± 0.034 | 0.0195 ± 0.039 | 0.014 ± 0.034 | -0.0165 ± 0.018 | -0.0175 ± 0.0078 | -0.0185 ± 0.026 | 0 ± 0.021 | -0.01 ± 0.0071 | -0.0335 ± 0.0035 | -0.0565 ± 0.036 | -0.137 ± 0.035 | -0.0235 ± 0.07 | -0.0245 ± 0.023 | -0.0015 ± 0.015
3C:CXCL8/IL-8 | 0.018 ± 0.021 | 0.024 ± 0.016 | 0.0505 ± 0.018 | -0.0045 ± 0.018 | 0.004 ± 0.0057 | 0.0655 ± 0.021 | -0.0225 ± 0.019 | -0.019 ± 0.0057 | 0 ± 0.018 | 0.011 ± 0.023 | 0.0415 ± 0.0092 | 0.024 ± 0.013 | -0.034 ± 0.055 | -0.0325 ± 0.053 | 0.06 ± 0.0085
3C:Proliferation | 0.0005 ± 0.028 | -0.003 ± 0.089 | -0.013 ± 0.0085 | -0.379 ± 0.12 | 0.0035 ± 0.013 | -0.0125 ± 0.0078 | -0.0245 ± 0.028 | -0.015 ± 0.033 | 0.004 ± 0.035 | -0.0605 ± 0.011 | -0.0635 ± 0.069 | -0.334 ± 0.024 | 0.0055 ± 0.0021 | 0.012 ± 0.027 | 0.0305 ± 0.039
3C:SRB | -0.004 ± 0.014 | -0.0025 ± 0.0078 | 0 ± 0.018 | -0.0305 ± 0.011 | -0.001 | 0.001 ± 0.0014 | 0.002 ± 0.035 | 0.0005 ± 0.018 | -0.0185 ± 0.0064 | -0.01 ± 0.011 | -0.0125 ± 0.0078 | -0.139 ± 0.014 | 0.001 ± 0.0099 | 0.002 ± 0.0057 | -0.0045 ± 0.028
4H:CCL2/MCP-1 | -0.009 ± 0.0014 | 0.007 ± 0.0085 | -0.006 ± 0.0057 | -0.058 ± 0.0028 | -0.015 ± 0.033 | 0.0095 ± 0.037 | -0.033 ± 0.013 | -0.018 ± 0.025 | 0.025 ± 0.042 | 0.002 ± 0.027 | -0.033 ± 0.0028 | -0.136 ± 0.031 | -0.0135 ± 0.056 | 0.0065 ± 0.029 | -0.02 ± 0.011
4H:CCL26/Eotaxin-3 | 0.016 | 0.006 ± 0.048 | -0.009 ± 0.05 | -0.214 ± 0.037 | 0.0365 ± 0.016 | 0.032 ± 0.027 | 0.0055 ± 0.0064 | -0.0365 ± 0.025 | 0.032 ± 0.062 | -0.0015 ± 0.005 | -0.0285 ± 0.028 | -0.1 ± 0.0071 | 0.017 ± 0.0014 | -0.0285 ± 0.023 | -0.095 ± 0.018
4H:CD62P/P-selectin | -0.033 ± 0.072 | -0.0065 ± 0.044 | -0.01 ± 0.0014 | -0.0825 ± 0.018 | 0.0125 ± 0.021 | 0.0035 ± 0.022 | -0.015 ± 0.0099 | -0.007 ± 0.0014 | 0.0455 ± 0.046 | -0.006 ± 0.014 | 0.055 ± 0.062 | -0.0045 ± 0.012 | -0.004 ± 0.064 | -0.003 ± 0.051 | -0.013 ± 0.054
4H:CD87/uPAR | -0.015 ± 0.025 | 0.0015 ± 0.019 | -0.0095 ± 0.0035 | -0.0665 ± 0.13 | -0.013 ± 0.023 | 0.0035 ± 0.012 | -0.0465 ± 0.06 | -0.055 ± 0.045 | -0.006 ± 0.021 | -0.01 ± 0.011 | 0.0115 ± 0.013 | -0.0605 ± 0.047 | -0.0005 ± 0.029 | 0.001 ± 0.031 | -0.002 ± 0.04
4H:VEGFR2 | -0.047 ± 0.034 | -0.0305 ± 0.00071 | -0.0265 ± 0.039 | -0.0225 ± 0.035 | 0.0055 ± 0.0092 | 0.06 ± 0.024 | -0.012 ± 0.0071 | 0 ± 0.017 | 0.031 ± 0.11 | -0.008 ± 0.023 | -0.023 ± 0.013 | -0.0965 ± 0.022 | -0.0215 ± 0.012 | -0.101 ± 0.0064 | -0.026 ± 0.021
BE3C:Keratin 8/18 | -0.051 ± 0.055 | -0.0445 ± 0.053 | -0.0305 ± 0.035 | -0.0055 ± 0.044 | -0.0075 ± 0.011 | -0.012 | -0.0125 ± 0.011 | 0.019 ± 0.021 | 0.011 ± 0.047 | 0.0065 ± 0.012 | 0.0055 ± 0.033 | -0.033 ± 0.025 | 0.001 ± 0.0071 | -0.0185 ± 0.00071 | -0.0085 ± 0.019
BE3C:MMP-1 | 0.0525 ± 0.0035 | 0.046 ± 0.0057 | 0.0375 ± 0.0078 | 0.0115 ± 0.0078 | -0.0205 ± 0.0078 | -0.011 | 0.003 ± 0.027 | 0.002 ± 0.055 | 0.041 ± 0.092 | 0.0255 ± 0.015 | 0.0645 ± 0.0035 | 0.195 ± 0.02 | -0.013 ± 0.017 | -0.0105 ± 0.018 | 0.078 ± 0.054
BE3C:PAI-I | -0.0115 ± 0.037 | -0.019 ± 0.034 | -0.016 ± 0.033 | 0.0535 ± 0.0064 | -0.0185 ± 0.047 | -0.0245 ± 0.037 | 0.0035 ± 0.0092 | 0.0075 ± 0.005 | 0.0165 ± 0.025 | -0.055 ± 0.062 | -0.087 ± 0.079 | -0.165 ± 0.068 | -0.005 ± 0.0014 | 0.011 ± 0.0085 | 0.0435 ± 0.016
BE3C:SRB | 0.0015 ± 0.0035 | 0.003 ± 0.0028 | 0.0025 ± 0.0021 | -0.0035 ± 0.0021 | 0.0095 ± 0.00071 | 0.0085 ± 0.0035 | -0.0035 ± 0.00071 | 0.0015 ± 0.00071 | 0.007 | -0.0065 ± 0.00071 | -0.022 | -0.058 ± 0.0099 | -0.005 ± 0.0099 | -0.001 ± 0.0028 | 0.0055 ± 0.011
BE3C:tPA | -0.0525 ± 0.036 | -0.053 ± 0.018 | -0.056 ± 0.013 | -0.0565 ± 0.033 | -0.006 ± 0.0042 | 0.0075 ± 0.022 | -0.0115 ± 0.06 | -0.0245 ± 0.03 | -0.0375 ± 0.026 | -0.0075 ± 0.035 | 0.0005 ± 0.016 | -0.245 ± 0.059 | -0.0025 ± 0.016 | 0.029 ± 0.02 | 0.05 ± 0.025
BE3C:uPA | 0.0055 ± 0.0064 | 0.0085 ± 0.0092 | 0.019 ± 0.021 | -0.015 ± 0.0028 | -0.0135 ± 0.0035 | -0.009 ± 0.0099 | -0.022 ± 0.014 | -0.004 ± 0.0042 | -0.0065 ± 0.00071 | -0.0115 ± 0.032 | 0.0025 ± 0.037 | -0.0365 ± 0.037 | -0.008 ± 0.0099 | -0.005 ± 0.0028 | 0.01 ± 0.0057
CASM3C:CD87/uPAR | -0.014 ± 0.028 | -0.0285 ± 0.023 | -0.0355 ± 0.023 | -0.0095 ± 0.022 | -0.019 ± 0.031 | -0.0195 ± 0.018 | -0.023 ± 0.0057 | -0.017 ± 0.035 | -0.019 ± 0.017 | -0.01 ± 0.0071 | -0.028 ± 0.0028 | -0.029 ± 0.033 | 0.003 ± 0.035 | 0.0145 ± 0.019 | -0.0125 ± 0.012
CASM3C:CD141/Thrombomodulin | 0.016 ± 0.071 | 0.021 ± 0.067 | 0.03 ± 0.081 | 0.081 ± 0.0042 | -0.0595 ± 0.021 | -0.0445 ± 0.021 | -0.0145 ± 0.047 | -0.0265 ± 0.018 | 0.001 ± 0.035 | -0.022 ± 0.025 | -0.0305 ± 0.021 | 0.016 ± 0.014 | -0.015 ± 0.037 | -0.0175 ± 0.063 | -0.033 ± 0.021

Reference: the supplement of paper PMC10331698
